System: 362531-283-R-J2-PDC complex spheroid viability
Experiment: Anticancer human tumor 362531-283-R-J2-PDC patient-derived colon adenocarcinoma cell line growth inhibition [RAS]
Conditions: for viability, T/C: stronger effect = lower value
In short: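 Tumour cells grown as complex spheroids with HUVEC endothelial cells and mesenchymal stem cells, treated with RAS pathway inhibitor combinations. Each agent spans half-log steps from near clinical Cmax, or 10 microM where Cmax is unknown.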

[1] = curve of first compound, second compound 0.00316 µM
[2] = curve of first compound, second compound 0.01 µM
[3] = curve of first compound, second compound 0.0316 µM
[4] = curve of first compound, second compound 0.1 µM
[5] = curve of first compound, second compound 0.316 µM
[6] = curve of first compound, second compound 1 µM
[7] = second compound 0.00316 µM, first compound 0.0316 µM
[8] = second compound 0.00316 µM, first compound 0.1 µM
[9] = second compound 0.00316 µM, first compound 0.316 µM
[10] = second compound 0.00316 µM, first compound 1 µM
[11] = second compound 0.00316 µM, first compound 3.16 µM
[12] = second compound 0.00316 µM, first compound 10 µM
[13] = second compound 0.01 µM, first compound 0.0316 µM
[14] = second compound 0.01 µM, first compound 0.1 µM
[15] = second compound 0.01 µM, first compound 0.316 µM
[16] = second compound 0.01 µM, first compound 1 µM
[17] = second compound 0.01 µM, first compound 3.16 µM
[18] = second compound 0.01 µM, first compound 10 µM
[19] = second compound 0.0316 µM, first compound 0.0316 µM
[20] = second compound 0.0316 µM, first compound 0.1 µM
[21] = second compound 0.0316 µM, first compound 0.316 µM
[22] = second compound 0.0316 µM, first compound 1 µM
[23] = second compound 0.0316 µM, first compound 3.16 µM
[24] = second compound 0.0316 µM, first compound 10 µM
[25] = second compound 0.1 µM, first compound 0.0316 µM
[26] = second compound 0.1 µM, first compound 0.1 µM
[27] = second compound 0.1 µM, first compound 0.316 µM
[28] = second compound 0.1 µM, first compound 1 µM
[29] = second compound 0.1 µM, first compound 3.16 µM
[30] = second compound 0.1 µM, first compound 10 µM
[31] = second compound 0.316 µM, first compound 0.0316 µM
[32] = second compound 0.316 µM, first compound 0.1 µM
[33] = second compound 0.316 µM, first compound 0.316 µM
[34] = second compound 0.316 µM, first compound 1 µM
[35] = second compound 0.316 µM, first compound 3.16 µM
[36] = second compound 0.316 µM, first compound 10 µM
[37] = second compound 1 µM, first compound 0.0316 µM
[38] = second compound 1 µM, first compound 0.1 µM
[39] = second compound 1 µM, first compound 0.316 µM
[40] = second compound 1 µM, first compound 1 µM
[41] = second compound 1 µM, first compound 3.16 µM
[42] = second compound 1 µM, first compound 10 µM
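Note: spheroids exposed to the agents for 7 days before readout.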
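Throughout, for viability, T/C: luminescence viability as percent of DMSO vehicle control wells.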

NC1c2ccccc2OC12CCN(c1cnc3c(N4CCCc5ncccc54)n[nH]c3n1)CC2 (stereo not drawn) + C=CC(=O)N1CCN(c2nc(OCC3CCCN3C)nc3c(F)c(-c4nc(N)cc(C)c4C(F)(F)F)c(Cl)cc23)C(C)C1
IC50 [1]: 3.84 µM
IC50 [2]: 5.87 µM
IC50 [3]: 4.67 µM
IC50 [4]: 6.19 µM
IC50 [5]: 7.66 µM
IC50 [6]: 8.02 µM
viability, T/C [7]: 102%
viability, T/C [8]: 76.8%
viability, T/C [9]: 83.8%
viability, T/C [10]: 60%
viability, T/C [11]: 56.2%
viability, T/C [12]: 37.9%
viability, T/C [13]: 92.1%
viability, T/C [14]: 82.2%
viability, T/C [15]: 75.1%
viability, T/C [16]: 72.5%
viability, T/C [17]: 57.8%
viability, T/C [18]: 42.3%
viability, T/C [19]: 89.4%
viability, T/C [20]: 86.7%
viability, T/C [21]: 73.3%
viability, T/C [22]: 66.6%
viability, T/C [23]: 58.3%
viability, T/C [24]: 38.4%
viability, T/C [25]: 93%
viability, T/C [26]: 83.6%
viability, T/C [27]: 79.2%
viability, T/C [28]: 64%
viability, T/C [29]: 61.9%
viability, T/C [30]: 43%
viability, T/C [31]: 94.4%
viability, T/C [32]: 91.6%
viability, T/C [33]: 78.4%
viability, T/C [34]: 68.9%
viability, T/C [35]: 65.7%
viability, T/C [36]: 44.5%
viability, T/C [37]: 91%
viability, T/C [38]: 79.2%
viability, T/C [39]: 74.7%
viability, T/C [40]: 70%
viability, T/C [41]: 61.9%
viability, T/C [42]: 45.7%

CC(C)NCC(C(=O)N1CCN(c2ncnc3c2C(C)CC3O)CC1)c1ccc(Cl)cc1 (stereo not drawn) + C=CC(=O)N1CCN(c2nc(OCC3CCCN3C)nc3c(F)c(-c4nc(N)cc(C)c4C(F)(F)F)c(Cl)cc23)C(C)C1
IC50 [1]: > 10 µM
IC50 [2]: > 10 µM
IC50 [3]: > 10 µM
IC50 [4]: > 10 µM
IC50 [5]: > 10 µM
IC50 [6]: > 10 µM
viability, T/C [7]: 109%
viability, T/C [8]: 98.7%
viability, T/C [9]: 103%
viability, T/C [10]: 91.2%
viability, T/C [11]: 97%
viability, T/C [12]: 92.5%
viability, T/C [13]: 93.7%
viability, T/C [14]: 101%
viability, T/C [15]: 90.7%
viability, T/C [16]: 94.6%
viability, T/C [17]: 106%
viability, T/C [18]: 107%
viability, T/C [19]: 90.5%
viability, T/C [20]: 104%
viability, T/C [21]: 101%
viability, T/C [22]: 102%
viability, T/C [23]: 103%
viability, T/C [24]: 94.9%
viability, T/C [25]: 94.2%
viability, T/C [26]: 94.5%
viability, T/C [27]: 105%
viability, T/C [28]: 96.8%
viability, T/C [29]: 111%
viability, T/C [30]: 102%
viability, T/C [31]: 95.4%
viability, T/C [32]: 105%
viability, T/C [33]: 101%
viability, T/C [34]: 96.8%
viability, T/C [35]: 111%
viability, T/C [36]: 92.5%
viability, T/C [37]: 98.6%
viability, T/C [38]: 101%
viability, T/C [39]: 95.7%
viability, T/C [40]: 102%
viability, T/C [41]: 104%
viability, T/C [42]: 86.8%

CCn1c(-c2cccnc2C(C)OC)c2c3cc(ccc31)N1CCOC(CC(NC(=O)C(C(C)C)N(C)C(=O)C3(F)CCN(C(=O)C#CC(C)(C)N(C)C)CC3)C(=O)N3CCCC(N3)C(=O)OCC(C)(C)C2)C1 (stereo not drawn)
viability, T/C (compound 0.000949 µM): 103% [middle of 8 runs]
viability, T/C (compound 0.003 µM): 102% [middle of 8 runs]
viability, T/C (compound 0.00949 µM): 107% [middle of 8 runs]
viability, T/C (compound 0.03 µM): 103% [middle of 8 runs]
viability, T/C (compound 0.0949 µM): 104% [middle of 8 runs]
viability, T/C (compound 0.3 µM): 100% [middle of 8 runs]
IC50 (compound alone, run of 07/09/2024): > 0.3 µM

C=CC(=O)Nc1cc(Nc2nccc(-c3cn(C)c4ccccc34)n2)c(OC)cc1N(C)CCN(C)C + CCn1c(-c2cccnc2C(C)OC)c2c3cc(ccc31)N1CCOC(CC(NC(=O)C(C(C)C)N(C)C(=O)C3(F)CCN(C(=O)C#CC(C)(C)N(C)C)CC3)C(=O)N3CCCC(N3)C(=O)OCC(C)(C)C2)C1
IC50 (curve of first compound, second compound 0.000949 µM): > 1 µM
IC50 (curve of first compound, second compound 0.003 µM): > 1 µM
IC50 (curve of first compound, second compound 0.00949 µM): > 1 µM
IC50 (curve of first compound, second compound 0.03 µM): > 1 µM
IC50 (curve of first compound, second compound 0.0949 µM): > 1 µM
IC50 (curve of first compound, second compound 0.3 µM): > 1 µM
viability, T/C (second compound 0.000949 µM, first compound 0.00316 µM): 92.4%
viability, T/C (second compound 0.000949 µM, first compound 0.01 µM): 93.8%
viability, T/C (second compound 0.000949 µM, first compound 0.0316 µM): 104%
viability, T/C (second compound 0.000949 µM, first compound 0.1 µM): 98.1%
viability, T/C (second compound 0.000949 µM, first compound 0.316 µM): 98%
viability, T/C (second compound 0.000949 µM, first compound 1 µM): 75.1%
viability, T/C (second compound 0.003 µM, first compound 0.00316 µM): 108%
viability, T/C (second compound 0.003 µM, first compound 0.01 µM): 107%
viability, T/C (second compound 0.003 µM, first compound 0.0316 µM): 103%
viability, T/C (second compound 0.003 µM, first compound 0.1 µM): 98.6%
viability, T/C (second compound 0.003 µM, first compound 0.316 µM): 95.4%
viability, T/C (second compound 0.003 µM, first compound 1 µM): 68.8%
viability, T/C (second compound 0.00949 µM, first compound 0.00316 µM): 112%
viability, T/C (second compound 0.00949 µM, first compound 0.01 µM): 103%
viability, T/C (second compound 0.00949 µM, first compound 0.0316 µM): 101%
viability, T/C (second compound 0.00949 µM, first compound 0.1 µM): 104%
viability, T/C (second compound 0.00949 µM, first compound 0.316 µM): 101%
viability, T/C (second compound 0.00949 µM, first compound 1 µM): 82.2%
viability, T/C (second compound 0.03 µM, first compound 0.00316 µM): 98.6%
viability, T/C (second compound 0.03 µM, first compound 0.01 µM): 99.9%
viability, T/C (second compound 0.03 µM, first compound 0.0316 µM): 100%
viability, T/C (second compound 0.03 µM, first compound 0.1 µM): 101%
viability, T/C (second compound 0.03 µM, first compound 0.316 µM): 101%
viability, T/C (second compound 0.03 µM, first compound 1 µM): 82.7%
viability, T/C (second compound 0.0949 µM, first compound 0.00316 µM): 98.4%
viability, T/C (second compound 0.0949 µM, first compound 0.01 µM): 97.1%
viability, T/C (second compound 0.0949 µM, first compound 0.0316 µM): 99%
viability, T/C (second compound 0.0949 µM, first compound 0.1 µM): 106%
viability, T/C (second compound 0.0949 µM, first compound 0.316 µM): 106%
viability, T/C (second compound 0.0949 µM, first compound 1 µM): 79.2%
viability, T/C (second compound 0.3 µM, first compound 0.00316 µM): 91.3%
viability, T/C (second compound 0.3 µM, first compound 0.01 µM): 90.1%
viability, T/C (second compound 0.3 µM, first compound 0.0316 µM): 99.6%
viability, T/C (second compound 0.3 µM, first compound 0.1 µM): 96.6%
viability, T/C (second compound 0.3 µM, first compound 0.316 µM): 104%
viability, T/C (second compound 0.3 µM, first compound 1 µM): 83.6%

Source: PubChem BioAssay AID2060909 (Molecular Pharmacology Branch, DTP, NCI, 2025)
